Test results: US11053239B2, “Compounds as BLC-2-selective apoptosis-inducing agents” (Fochon Pharmaceuticals, Ltd., priority 2017, dated 2021)

What was measured:
RS4; 11 cells = assay: Cell proliferation assay (MTS), RS4; 11 cells; type: cell-based; conditions: Homo sapiens, RS4-11, 72 h, RS4; 11 (ATCC CRL-1873) cell proliferation, 30000 cells/well, 72 h, MTS; mechanism-based readout of Bcl-2 inhibition; read-out: RS4; 11 IC50
Summary of the method: (§1)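 RS4;11 (30000 cells/well, 72 h) and DOHH2 (5000 cells/well, 120 h) cells in RPMI-1640/10% FBS, treated at 37 °C with compound at 1.5–10000 nM final. Viability by MTS (2 h, SDS stop), absorbance 490 nm minus 650 nm reference; IC50 fitted.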

DOHH2 cells = assay: Cell proliferation assay (MTS), DOHH2 cells; type: cell-based; conditions: Homo sapiens, DOHH-2, 120 h, DOHH2 (DSMZ ACC 47) cell proliferation, 5000 cells/well, 120 h, MTS; mechanism-based readout of Bcl-2 inhibition; read-out: DOHH2 IC50
Summary of the method: as §1

CC1(C)CCC(CN2CCN(c3ccc(C(=O)NS(=O)(=O)c4ccc(NCC5CCS(=O)(=NC6CC6)CC5)c([N+](=O)[O-])c4)c(Oc4cnc5[nH]ccc5c4)c3)CC2)=C(c2ccc(Cl)cc2)C1 (stereo not shown) [Example 5, 2-((1H-pyrrolo[2,3-b]pyridin-5-yl)oxy)-4-(4-((4′-chloro-5,5-dimethyl-3,4,5,6-tetrahydro-[1,1′-biphenyl]-2-yl)methyl)piperazin-1-yl)-N-((4-(((1-(cyclopropylimino)-1-oxidohexahydro-1λ^6-thiopyran-4-yl)methyl)amino)-3-nitrophenyl)sulfonyl)benzamide] showed an IC50 (RS4; 11 cells) of 43 nM and an IC50 (DOHH2 cells) of 92 nM.
Work on COC(=O)N=S1(=O)CCN(CC[C@H](C)Nc2ccc(S(=O)(=O)NC(=O)c3ccc(N4CCN(CC5=C(c6ccc(Cl)cc6)CC(C)(C)CC5)CC4)cc3Oc3cnc4[nH]ccc4c3)cc2[N+](=O)[O-])CC1 [Example 84, methyl (S)-(4-(3-((4-(N-(2-((1H-pyrrolo[2,3-b]pyridin-5-yl)oxy)-4-(4-((4′-chloro-5,5-dimethyl-3,4,5,6-tetrahydro-[1,1′-biphenyl]-2-yl)methyl)piperazin-1-yl)benzoyl)sulfamoyl)-2-nitrophenyl)amino)butyl)-1-oxido-1λ^6-thiomorpholin-1-ylidene)carbamate] yielded an IC50 (RS4; 11 cells) of 11 nM and an IC50 (DOHH2 cells) of 15 nM.
Work on C[C@@H](CCN1CCS(=O)(=NC2CC2)CC1)Nc1ccc(S(=O)(=O)NC(=O)c2ccc(N3CCN(CC4=C(c5ccc(Cl)cc5)CC(C)(C)CC4)CC3)cc2Oc2cnc3[nH]ccc3c2)cc1[N+](=O)[O-] [Example 79, (S)-2-((1H-pyrrolo[2,3-b]pyridin-5-yl)oxy)-4-(4-((4′-chloro-5,5-dimethyl-3,4,5,6-tetrahydro-[1,1′-biphenyl]-2-yl)methyl)piperazin-1-yl)-N-((4-((4-(1-(cyclopropylimino)-1-oxido-1λ^6-thiomorpholino)butan-2-yl)amino)-3-nitrophenyl)sulfonyl)benzamide] yielded an IC50 (RS4; 11 cells) of 14 nM and an IC50 (DOHH2 cells) of 11 nM.
With CC1(C)CCC(CN2CCN(c3ccc(C(=O)NS(=O)(=O)c4ccc(NCC5CCC(N=S(C)(C)=O)CO5)c([N+](=O)[O-])c4)c(Oc4cnc5[nH]ccc5c4)c3)CC2)=C(c2ccc(Cl)cc2)C1 (stereo not shown) [Example 57, 2-((1H-pyrrolo[2,3-b]pyridin-5-yl)oxy)-4-(4-((4′-chloro-5,5-dimethyl-3,4,5,6-tetrahydro-[1,1′-biphenyl]-2-yl)methyl)piperazin-1-yl)-N-((4-(((5-((dimethyl(oxo)-λ^6-sulfanylidene)amino)tetrahydro-2H-pyran-2-yl)methyl)amino)-3-nitrophenyl)sulfonyl)benzamide] the IC50 (RS4; 11 cells) was 20 nM and the IC50 (DOHH2 cells) was 30 nM.
For CC1(C)CCC(CN2CCN(c3ccc(C(=O)NS(=O)(=O)c4ccc(NCC5CCS(=O)(=NC6CC6)CC5)c(S(=O)(=O)C(F)(F)F)c4)c(Oc4cnc5[nH]ccc5c4)c3)CC2)=C(c2ccc(Cl)cc2)C1 (stereo not shown) [Example 8, 2-((1H-pyrrolo[2,3-b]pyridin-5-yl)oxy)-4-(4-((4′-chloro-5,5-dimethyl-3,4,5,6-tetrahydro-[1,1′-biphenyl]-2-yl)methyl)piperazin-1-yl)-N-((4-(((1-(cyclopropylimino)-1-oxidohexahydro-1λ^6-thiopyran-4-yl)methyl)amino)-3-((trifluoromethyl)sulfonyl)phenyl)sulfonyl)benzamide], the IC50 (RS4; 11 cells) was 33 nM and the IC50 (DOHH2 cells) was 99 nM.
COC(=O)N=S1(=O)CCC(CNc2ccc(S(=O)(=O)NC(=O)c3ccc(N4CCN(CC5=C(c6ccc(Cl)cc6)CC(C)(C)CC5)CC4)cc3Oc3cnc4[nH]ccc4c3)cc2[N+](=O)[O-])CC1 (stereo not shown) [Example 61, methyl(4-(((4-(N-(2-((1H-pyrrolo[2,3-b]pyridin-5-yl)oxy)-4-(4-((4′-chloro-5,5-dimethyl-3,4,5,6-tetrahydro-[1,1′-biphenyl]-2-yl)methyl)piperazin-1-yl)benzoyl)sulfamoyl)-2-nitrophenyl)amino)methyl)-1-oxidotetrahydro-2H-1λ^6-thiopyran-1-ylidene) carbamate] showed an IC50 (RS4; 11 cells) of 56 nM and an IC50 (DOHH2 cells) of 161 nM.
COC(=O)N=S1(=O)CCN(C[C@H](C)Nc2ccc(S(=O)(=O)NC(=O)c3ccc(N4CCN(CC5=C(c6ccc(Cl)cc6)CC(C)(C)CC5)CC4)cc3Oc3cnc4[nH]ccc4c3)cc2[N+](=O)[O-])CC1 [Example 44, methyl (S)-(4-(2-((4-(N-(2-((1H-pyrrolo[2,3-b]pyridin-5-yl)oxy)-4-(4-((4′-chloro-5,5-dimethyl-3,4,5,6-tetrahydro-[1,1′-biphenyl]-2-yl)methyl)piperazin-1-yl)benzoyl)sulfamoyl)-2-nitrophenyl)amino)propyl)-1-oxido-1λ^6-thiomorpholin-1-ylidene) carbamate] was tested, and the IC50 (RS4; 11 cells) was 21 nM and the IC50 (DOHH2 cells) was 20 nM.
For CN=S1(=O)CCN(C[C@H](C)Nc2ccc(S(=O)(=O)NC(=O)c3ccc(N4CCN(CC5=C(c6ccc(Cl)cc6)CC(C)(C)CC5)CC4)cc3Oc3cnc4[nH]ccc4c3)cc2[N+](=O)[O-])CC1 [Example 7, (S)-2-((1H-pyrrolo[2,3-b]pyridin-5-yl)oxy)-4-(4-((4′-chloro-5,5-dimethyl-3,4,5,6-tetrahydro-[1,1′-biphenyl]-2-yl)methyl)piperazin-1-yl)-N-((4-((1-(1-(methylimino)-1-oxido-1λ^6-thiomorpholino)propan-2-yl)amino)-3-nitrophenyl)sulfonyl)benzamide], the IC50 (RS4; 11 cells) was 55 nM and the IC50 (DOHH2 cells) was 111 nM.
Molecule C[C@@H](CCN1CCS(=O)(=NC(=O)C2CC2)CC1)Nc1ccc(S(=O)(=O)NC(=O)c2ccc(N3CCN(CC4=C(c5ccc(Cl)cc5)CC(C)(C)CC4)CC3)cc2Oc2cnc3[nH]ccc3c2)cc1[N+](=O)[O-] [Example 83, (S)-2-((1H-pyrrolo[2,3-b]pyridin-5-yl)oxy)-4-(4-((4′-chloro-5,5-dimethyl-3,4,5,6-tetrahydro-[1,1′-biphenyl]-2-yl)methyl)piperazin-1-yl)-N-((4-((4-(1-((cyclopropanecarbonyl)imino)-1-oxido-1λ^6-thiomorpholino)butan-2-yl)amino)-3-nitrophenyl)sulfonyl)benzamide] has an IC50 (RS4; 11 cells) of 18 nM and an IC50 (DOHH2 cells) of 47 nM.
Work on CC(C)C(=O)N=S1(=O)CCN(CC[C@H](C)Nc2ccc(S(=O)(=O)NC(=O)c3ccc(N4CCN(CC5=C(c6ccc(Cl)cc6)CC(C)(C)CC5)CC4)cc3Oc3cnc4[nH]ccc4c3)cc2[N+](=O)[O-])CC1 [Example 82, (S)-2-((1H-pyrrolo[2,3-b]pyridin-5-yl)oxy)-4-(4-((4′-chloro-5,5-dimethyl-3,4,5,6-tetrahydro-[1,1′-biphenyl]-2-yl)methyl)piperazin-1-yl)-N-((4-((4-(1-(isobutyrylimino)-1-oxido-1λ^6-thiomorpholino)butan-2-yl)amino)-3-nitrophenyl)sulfonyl)benzamide] yielded an IC50 (RS4; 11 cells) of 10 nM and an IC50 (DOHH2 cells) of 18 nM.
In the case of CC1(C)CCC(CN2CCN(c3ccc(C(=O)NS(=O)(=O)c4ccc(NCCN5CCP(C)(=O)CC5)c([N+](=O)[O-])c4)c(Oc4cnc5[nH]ccc5c4)c3)CC2)=C(c2ccc(Cl)cc2)C1 [Example 2, 2-((1H-pyrrolo[2,3-b]pyridin-5-yl)oxy)-4-(4-((4′-chloro-5,5-dimethyl-3,4,5,6-tetrahydro-[1,1′-biphenyl]-2-yl)methyl)piperazin-1-yl)-N-((4-((2-(4-methyl-4-oxido-1,4-azaphosphinan-1-yl)ethyl)amino)-3-nitrophenyl)sulfonyl)benzamide], the IC50 (RS4; 11 cells) is reported as 163 nM and the IC50 (DOHH2 cells) is reported as 427 nM.
In the case of CCN=S1(=O)CCC(CNc2ccc(S(=O)(=O)NC(=O)c3ccc(N4CCN(CC5=C(c6ccc(Cl)cc6)CC(C)(C)CC5)CC4)cc3Oc3cnc4[nH]ccc4c3)cc2[N+](=O)[O-])CC1 (stereo not shown) [Example 30, 2-((1H-pyrrolo[2,3-b]pyridin-5-yl)oxy)-4-(4-((4′-chloro-5,5-dimethyl-3,4,5,6-tetrahydro-[1,1′-biphenyl]-2-yl)methyl)piperazin-1-yl)-N-((4-(((1-(ethylimino)-1-oxidohexahydro-1λ^6-thiopyran-4-yl)methyl)amino)-3-nitrophenyl)sulfonyl) benzamide], the IC50 (RS4; 11 cells) is reported as 43 nM and the IC50 (DOHH2 cells) is reported as 132 nM.
In the case of CCN=S1(=O)CCN(C[C@H](C)Nc2ccc(S(=O)(=O)NC(=O)c3ccc(N4CCN(CC5=C(c6ccc(Cl)cc6)CC(C)(C)CC5)CC4)cc3Oc3cnc4[nH]ccc4c3)cc2[N+](=O)[O-])CC1 [Example 38, (S)-((1H-pyrrolo[2,3-b]pyridin-5-yl)oxy)-4-(4-((4′-chloro-5,5-dimethyl-3,4,5,6-tetrahydro-[1,1′-biphenyl]-2-yl)methyl)piperazin-1-yl)-N-((4-((1-(1-(ethylimino)-1-oxido-1λ^6-thiomorpholino)propan-2-yl)amino)-3-nitrophenyl)sulfonyl) benzamide], the IC50 (RS4; 11 cells) is reported as 28 nM and the IC50 (DOHH2 cells) is reported as 108 nM.
With CCC(=O)N=S1(=O)CCN(C[C@H](C)Nc2ccc(S(=O)(=O)NC(=O)c3ccc(N4CCN(CC5=C(c6ccc(Cl)cc6)CC(C)(C)CC5)CC4)cc3Oc3cnc4[nH]ccc4c3)cc2[N+](=O)[O-])CC1 [Example 65, (S)-2-((1H-pyrrolo[2,3-b]pyridin-5-yl)oxy)-4-(4-((4′-chloro-5,5-dimethyl-3,4,5,6-tetrahydro-[1,1′-biphenyl]-2-yl)methyl)piperazin-1-yl)-N-((3-nitro-4-((l-(1-oxido-1-(propionylimino)-1λ^6-thiomorpholino)propan-2-yl)amino)phenyl)sulfonyl) benzamide] the IC50 (RS4; 11 cells) was 11 nM and the IC50 (DOHH2 cells) was 31 nM.
